Reference: article PMC5839718 (The Journal of General Physiology, 2018)
“And” between values parts separate entries of the source, which are not always exact repeats. Equal values may be shown once. “Also recorded” adds a separate entry of the source. Read-outs that look alike come from different tables or passages of the source. Values belong to the compound of their own block, whether it stands above or below them.

Key:
Assay type in all cases: cell-based
[1] = target: α4β2 nAChR from β-6a-α and α4^VFL (1:1) (Homo sapiens, UniProt P17787+P43681, H142V/Q150F/T152L); assay: two-electrode voltage-clamp, oocytes, β-6a-α and α4^VFL
Chain of α4β2 nAChR from β-6a-α and α4^VFL (1:1) (P17787 26-502): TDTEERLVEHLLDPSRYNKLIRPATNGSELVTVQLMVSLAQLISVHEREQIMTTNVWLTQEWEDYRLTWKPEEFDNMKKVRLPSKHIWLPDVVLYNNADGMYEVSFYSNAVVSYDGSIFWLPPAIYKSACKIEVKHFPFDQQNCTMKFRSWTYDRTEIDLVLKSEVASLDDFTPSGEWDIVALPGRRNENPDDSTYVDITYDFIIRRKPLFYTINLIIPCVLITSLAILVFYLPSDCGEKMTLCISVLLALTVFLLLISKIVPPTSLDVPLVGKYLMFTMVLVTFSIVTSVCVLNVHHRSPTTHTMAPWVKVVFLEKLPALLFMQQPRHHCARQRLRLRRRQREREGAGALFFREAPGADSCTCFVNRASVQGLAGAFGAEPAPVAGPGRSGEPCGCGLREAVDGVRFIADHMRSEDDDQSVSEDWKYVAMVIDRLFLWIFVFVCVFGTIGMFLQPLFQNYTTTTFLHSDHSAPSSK
Chain of α4β2 nAChR from β-6a-α and α4^VFL (1:1) (P43681 27-627, stated change not applied): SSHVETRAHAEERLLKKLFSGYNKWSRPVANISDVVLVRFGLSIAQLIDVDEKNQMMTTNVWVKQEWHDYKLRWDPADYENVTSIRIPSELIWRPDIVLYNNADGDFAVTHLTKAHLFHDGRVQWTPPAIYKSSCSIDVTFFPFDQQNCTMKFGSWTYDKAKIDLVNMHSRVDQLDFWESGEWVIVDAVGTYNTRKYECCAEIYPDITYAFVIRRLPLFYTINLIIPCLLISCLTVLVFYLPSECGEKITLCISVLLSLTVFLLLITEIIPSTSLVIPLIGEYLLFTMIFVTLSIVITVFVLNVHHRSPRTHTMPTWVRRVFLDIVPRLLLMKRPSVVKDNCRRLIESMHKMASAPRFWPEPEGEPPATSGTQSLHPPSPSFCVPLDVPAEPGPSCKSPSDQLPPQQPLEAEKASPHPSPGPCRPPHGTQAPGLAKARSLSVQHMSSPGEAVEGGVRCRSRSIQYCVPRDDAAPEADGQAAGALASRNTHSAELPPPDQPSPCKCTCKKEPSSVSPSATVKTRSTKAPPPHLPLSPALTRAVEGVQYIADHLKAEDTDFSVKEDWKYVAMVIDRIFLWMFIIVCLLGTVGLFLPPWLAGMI
Chain of α4β2 nAChR from β-6a-α and α4^VFL (1:1) (P43681 27-627 H142V/Q150F/T152L): as the sequence (P43681 27-627, stated change not applied) above, with H116V, Q124F, T126L counted along it

[2] = target: α4β2 nAChR from β-21a-α^VFL-α-β-α (Homo sapiens, UniProt P17787+P43681, H142V/Q150F/T152L); assay: two-electrode voltage-clamp, oocytes, pentameric β-21a-α^VFL-α-β-α
[3] = target: α4β2 nAChR from β-21a-α-α-β-α (Homo sapiens, UniProt P17787+P43681); assay: two-electrode voltage-clamp, oocytes, pentameric β-21a-α-α-β-α
[4] = target: α4β2 nAChR from β-0a-α and α4^VFL (1:1) (Homo sapiens, UniProt P17787+P43681, H142V/Q150F/T152L); assay: two-electrode voltage-clamp, oocytes, β-0a-α and α4^VFL; conditions: β-0a-α + α4^VFL
[5] = target: α4β2 nAChR from β-9a-α and α4^VFL (1:1) (Homo sapiens, UniProt P17787+P43681, H142V/Q150F/T152L); assay: two-electrode voltage-clamp, oocytes, β-9a-α and α4^VFL
[6] = target: α4β2 nAChR from β-9a-α alone (Homo sapiens, UniProt P17787+P43681); assay: two-electrode voltage-clamp, oocytes, β-9a-α alone
[7] = target: α4β2 nAChR from β-6-α and α4 (1:1) (Homo sapiens, UniProt P17787+P43681); assay: two-electrode voltage-clamp, oocytes, β-6-α and α4; conditions: β-6-α + α4
[8] = target: α4β2 nAChR from β-21a-α-α^VFL-β-α (Homo sapiens, UniProt P17787+P43681, H142V/Q150F/T152L); assay: two-electrode voltage-clamp, oocytes, pentameric β-21a-α-α^VFL-β-α
[9] = target: α4β2 nAChR from β-9a-α and α4 (1:1) (Homo sapiens, UniProt P17787+P43681); assay: two-electrode voltage-clamp, oocytes, β-9a-α and α4
[10] = target: α4β2 nAChR from concatenated β-6-α alone (Homo sapiens, UniProt P17787+P43681); assay: two-electrode voltage-clamp, oocytes, β-6-α alone
[11] = target: (α4^VFL)3(β2)2 nAChR from α4^VFL and β2 (10:1) (Homo sapiens, UniProt P17787+P43681, H142V/Q150F/T152L); assay: two-electrode voltage-clamp, X. laevis oocytes, α4^VFL and β2 cRNA 10:1
Chain of (α4^VFL)3(β2)2 nAChR from α4^VFL and β2 (10:1) (P43681 27-627 H142V/Q150F/T152L): as the sequence (P43681 27-627, stated change not applied) above, with H116V, Q124F, T126L counted along it
Chain of (α4^VFL)3(β2)2 nAChR from α4^VFL and β2 (10:1) (P17787 26-502): as the sequence (P17787 26-502) above

[12] = target: α4β2 nAChR from β-6-α-9-β-6-α and α4^VFL (1:5) (Homo sapiens, UniProt P17787+P43681, H142V/Q150F/T152L); assay: two-electrode voltage-clamp, oocytes, β-6-α-9-β-6-α and α4^VFL 1:5
[13] = target: α4β2 nAChR from β-6a-α alone (Homo sapiens, UniProt P17787+P43681); assay: two-electrode voltage-clamp, oocytes, β-6a-α alone
[14] = target: α4β2 nAChR from β-3a-α^VFL-β-α-α (Homo sapiens, UniProt P17787+P43681, H142V/Q150F/T152L); assay: two-electrode voltage-clamp, oocytes, pentameric β-3a-α^VFL-β-α-α
[15] = target: α4β2 nAChR from β-3a-α-β-α-α^VFL (Homo sapiens, UniProt P17787+P43681, H142V/Q150F/T152L); assay: two-electrode voltage-clamp, oocytes, pentameric β-3a-α-β-α-α^VFL
[16] = target: α4β2 nAChR from β-3a-α-β-α-α (Homo sapiens, UniProt P17787+P43681); assay: two-electrode voltage-clamp, oocytes, pentameric β-3a-α-β-α-α
[17] = target: α4β2 nAChR from β-21a-α-β-α-α (Homo sapiens, UniProt P17787+P43681); assay: two-electrode voltage-clamp, oocytes, pentameric β-21a-α-β-α-α
[18] = target: α4β2 nAChR from β-3a-α and α4^VFL (1:1) (Homo sapiens, UniProt P17787+P43681, H142V/Q150F/T152L); assay: two-electrode voltage-clamp, oocytes, β-3a-α and α4^VFL
Chain of α4β2 nAChR from β-3a-α and α4^VFL (1:1) (P17787 26-502): as above
Chain of α4β2 nAChR from β-3a-α and α4^VFL (1:1) (P43681 27-627, stated change not applied): as the sequence (P43681 27-627, stated change not applied) above
Chain of α4β2 nAChR from β-3a-α and α4^VFL (1:1) (P43681 27-627 H142V/Q150F/T152L): as the sequence (P43681 27-627, stated change not applied) above, with H116V, Q124F, T126L counted along it

[19] = target: α4β2 nAChR from β-3a-α^VFL-α-β-α (Homo sapiens, UniProt P17787+P43681, H142V/Q150F/T152L); assay: two-electrode voltage-clamp, oocytes, pentameric β-3a-α^VFL-α-β-α
[20] = target: α4β2 nAChR from β-6-α and α4^VFL (1:1) (Homo sapiens, UniProt P17787+P43681, H142V/Q150F/T152L); assay: two-electrode voltage-clamp, oocytes, β-6-α and α4^VFL 1:1; conditions: β-6-α + α4^VFL 1:1
[21] = target: α4β2 nAChR from β-6-α-9-β-6-α alone (Homo sapiens, UniProt P17787+P43681); assay: two-electrode voltage-clamp, oocytes, tetrameric β-6-α-9-β-6-α alone
[22] = […] NS9283 + 10 µM ACh, % change from AChcontrol current

- ACh Frac (first component fraction) ([1]; β-6a-α + α4^VFL, biphasic fit): 0.31 ± 0.14
- Emax ([2]; read-out: ACh Emax): 104 ± 1%
- ACh Frac (first component fraction) ([2]; β-21a-α^VFL-α-β-α, biphasic fit): 0.44 ± 0.1
- Emax ([3]; read-out: ACh Emax): 100 ± 2%
- ACh Frac (first component fraction) ([3]; β-21a-α-α-β-α, biphasic fit): 0.060 ± 0.025
- ACh Frac (first component fraction) ([4]; biphasic fit): 0.28 ± 0.34
- ACh Frac (first component fraction) ([5]; β-9a-α + α4^VFL, biphasic fit): 0.32 ± 0.09
- Emax ([6]; read-out: ACh Emax): 105 ± 3%
- ACh Frac (first component fraction) ([6]; β-9a-α alone, biphasic fit): 0.28 and 0.28 ± 0.05
- ACh Frac (first component fraction) ([7]; biphasic fit): 0.073 ± 0.038
- Emax ([8]; read-out: ACh Emax): 102 ± 2%
- ACh Frac (first component fraction) ([8]; β-21a-α-α^VFL-β-α, biphasic fit): 0.46 ± 0.18
- ACh Frac (first component fraction) ([9]; β-9a-α + α4, biphasic fit): 0.13 ± 0.05
- Emax ([10]; read-out: ACh Emax): 102 ± 2%
- ACh Frac (first component fraction) ([10]; β-6-α alone, biphasic fit): 0.11 and 0.11 ± 0.02
- Emax ([11]; read-out: ACh Emax): 104 ± 2%
- ACh Frac (first component fraction) ([11]; α4^VFL+β2 10:1, biphasic fit): 0.71 ± 0.12
- ACh Frac (first component fraction) ([12]; β-6-α-9-β-6-α + α4^VFL 1:5, biphasic fit): 0.32 ± 0.13
- Emax ([13]; read-out: ACh Emax): 103 ± 2%
- ACh Frac (first component fraction) ([13]; β-6a-α alone, biphasic fit): 0.70 ± 0.12
- Emax ([14]; read-out: ACh Emax): 105 ± 1%
- ACh Frac (first component fraction) ([14]; β-3a-α^VFL-β-α-α, biphasic fit): 0.39 ± 0.05
- Emax ([15]; read-out: ACh Emax): 104 ± 1%
- ACh Frac (first component fraction) ([15]; β-3a-α-β-α-α^VFL, biphasic fit): 0.53 ± 0.08
- Emax ([16]; read-out: ACh Emax): 102 ± 1%
- ACh Frac (first component fraction) ([16]; β-3a-α-β-α-α, biphasic fit): 0.11 ± 0.02
- Emax ([17]; read-out: ACh Emax): 101 ± 1%
- mean AChmax-evoked currents ([17]; β-21a-α-β-α-α): ~2 μA
- ACh Frac (first component fraction) ([17]; β-21a-α-β-α-α, biphasic fit): 0.060 ± 0.011
- ACh Frac (first component fraction) ([18]; β-3a-α + α4^VFL, biphasic fit): 0.41 ± 0.06
- Emax ([19]; read-out: ACh Emax): 105 ± 4%
- ACh Frac (first component fraction) ([19]; β-3a-α^VFL-α-β-α, biphasic fit): 0.28 ± 0.10
- ACh Frac (first component fraction) ([20]; biphasic fit): 0.40 ± 0.08
- Emax ([21]; read-out: ACh Emax): 109 ± 5%
- ACh Frac (first component fraction) ([21]; β-6-α-9-β-6-α alone, biphasic fit): 0.45 and 0.45 ± 0.07
SMILES: CC(=O)OCC[N+](C)(C)C [ACh, acetylcholine]

- EC50 ([1]; NS9283 pEC50, β-6a-α + α4^VFL, coapplied with 10 µM ACh): 10 µM
- NS9283 E31.6 µM ([1]; β-6a-α + α4^VFL, […] NS9283 + 10 µM ACh, % change from AChcontrol current): 140 ± 10%
- EC50 [2]: 6.31 µM
- Emax ([2]; read-out: NS9283 Emax): 102 ± 10%
- NS9283 E31.6 µM ([2]; β-21a-α^VFL-α-β-α, […] NS9283 + 10 µM ACh, % change from AChcontrol current): 85 ± 10%
- EC50 [3]: 5.01 µM
- Emax ([3]; read-out: NS9283 Emax): 910 ± 70%
- NS9283 E31.6 µM ([3]; β-21a-α-α-β-α, […] NS9283 + 10 µM ACh, % change from AChcontrol current): 780 ± 90%
- EC50 ([5]; NS9283 pEC50, β-9a-α + α4^VFL, coapplied with 10 µM ACh): 10 µM
- NS9283 E31.6 µM ([5]; β-9a-α + α4^VFL, […] NS9283 + 10 µM ACh, % change from AChcontrol current): 200 ± 10%
- EC50 [6]: 10 µM
- Emax ([6]; read-out: NS9283 Emax): 130 ± 30%
- NS9283 E31.6 µM ([6]; β-9a-α alone, […] NS9283 + 10 µM ACh, % change from AChcontrol current): 100 ± 20%
- NS9283 E31.6 µM [7, 22]: 860 ± 100%
- EC50 ([8]; NS9283 pEC50, β-21a-α-α^VFL-β-α, coapplied with 10 µM ACh): 10 µM
- Emax ([8]; read-out: NS9283 Emax): 75 ± 9%
- NS9283 E31.6 µM ([8]; β-21a-α-α^VFL-β-α, […] NS9283 + 10 µM ACh, % change from AChcontrol current): 55 ± 6%
- EC50 ([9]; NS9283 pEC50, β-9a-α + α4, coapplied with 10 µM ACh): 12.6 µM
- EC50 [10]: 12.6 µM
- Emax ([10]; read-out: NS9283 Emax): 900 ± 140%
- NS9283 E31.6 µM ([10]; β-6-α alone, […] NS9283 + 10 µM ACh, % change from AChcontrol current): 640 ± 90%
- EC50 ([12]; NS9283 pEC50, β-6-α-9-β-6-α + α4^VFL 1:5, coapplied with 10 µM ACh): 7.94 µM
- EC50 [13]: 3.98 µM
- Emax ([13]; read-out: NS9283 Emax): 51 ± 7%
- EC50 ([14]; NS9283 pEC50, β-3a-α^VFL-β-α-α, coapplied with 10 µM ACh): 6.31 µM
- Emax ([14]; read-out: NS9283 Emax): 240 ± 20%
- Emax ([15]; read-out: NS9283 Emax): 13 ± 1%
- NS9283 E31.6 µM ([15]; β-3a-α-β-α-α^VFL, […] NS9283 + 10 µM ACh, % change from AChcontrol current): 11 ± 2%
- EC50 [16]: 7.94 µM
- Emax ([16]; read-out: NS9283 Emax): 800 ± 90%
- NS9283 E31.6 µM ([16]; β-3a-α-β-α-α, […] NS9283 + 10 µM ACh, % change from AChcontrol current): 640 ± 90%
- EC50 [17]: 7.94 µM
- EC50 ([18]; NS9283 pEC50, β-3a-α + α4^VFL, coapplied with 10 µM ACh): 6.31 µM
- NS9283 E31.6 µM ([18]; β-3a-α + α4^VFL, […] NS9283 + 10 µM ACh, % change from AChcontrol current): 22 ± 3%
- EC50 ([19]; NS9283 pEC50, β-3a-α^VFL-α-β-α, coapplied with 10 µM ACh): 7.94 µM
- Emax ([19]; read-out: NS9283 Emax): 340 ± 20%
- NS9283 E31.6 µM ([19]; β-3a-α^VFL-α-β-α, […] NS9283 + 10 µM ACh, % change from AChcontrol current): 270 ± 10%
- NS9283 E31.6 µM [20, 22]: 210 ± 20%
- EC50 [21]: 10 µM
- Emax ([21]; read-out: NS9283 Emax): 220 ± 30%
- NS9283 E31.6 µM ([21]; β-6-α-9-β-6-α alone, […] NS9283 + 10 µM ACh, % change from AChcontrol current): 170 ± 20%
SMILES: N#Cc1cccc(-c2nc(-c3cccnc3)no2)c1 [NS9283, 3-(3-(pyridine-3-yl)-1,2,4-oxadiazol-5-yl)benzonitrile]
- NS9283 Emax ([4]; coapplied with 10 µM ACh): No hint of NS9283 enhancement; also recorded: No pos. pot
- NS9283 Emax ([11]; α4^VFL+β2 10:1, coapplied with 10 µM ACh): no positive efficacy; also recorded: No pos. pot
